One test relates to IL-12. The following applies: cited from earlier work.
The subject of a further test is IL-12p75. The following applies: short treatment; Mattner et al. 2000; cited from earlier work.
The next test deals with NOD mice. The following applies: cited from earlier work.
Test [1] relates to vascularized heart allograft. Kind of test: Vascularized heart allograft survival, C57BL/6 into BALB/c recipients. Format: in vivo, mouse. The settings on record: Dose 5 (unit not given) per os 3x/w every other day from d-1 until d+30. The source says: Fully vascularized hearts were grafted into the abdomen of recipient mice as described (Corry, R. J., H. J. Winn, and P. S. Russell. Primarily vascularized allografts of hearts in mice. The role of H-2D, H-2K, and non-H-2 antigens in rejection. Transplantation. 1973, 16:343). Graft survival was monitored by palpation and rejection was confirmed by direct graft inspection.

Setting [2] is: administered to NOD mice starting from three weeks of age.

Regarding `C=C1/C(=C\C=C2/CCC[C@]3(C)[C@@H]([C@H](C)CCCC(C)(C)O)CC[C@@H]23)C[C@@H](O)C[C@@H]1O` [1,25(OH)2D3, 1,25-dihydroxyvitamin D3], in the test with IL-12, the IL-12 production result is “inhibits IL-12 production”. In the test on IL-12p75, the “LPS-induced serum levels of both cytokines (IL-12, IFN-γ)” value is reported as “can be inhibited”. In addition, the “preventing progression of diabetes” value in the test with NOD mice (administered to NOD mice from 8 weeks of age) was “ineffective”. In the test with NOD mice (setting [2]), the incidence of insulitis result was “reduces the incidence of insulitis” and the “type 1 DM development” value is “prevents type 1 DM development”.
Regarding `C=C1/C(=C\C=C2/CCC[C@@]3(C)C2CCC3[C@@H](C)CCCC(C)(C)O)C[C@@H](O)C[C@@H]1O` (stereo partly shown) [MC1288], the incidence of disease entry in the test with NOD mice (treatment of 8 week-old NOD mice, combined or alone) is listed as “neither treatment alone was effective”.
As to `C=C1/C(=C\C=C2/CCC[C@@]3(C)C2CCC3[C@H](C)CCCC(C)(C)O)C[C@@H](O)C[C@@H]1O` (stereo partly shown) [Reference, reference compound], the “Graft survival (days) Mean” value in test [1] is listed as 14.33 days.

The values above are taken from US20040214803A1, “Use of vitamin d3 analogue for the treatment of autoimmune diabetes” (priority 2001, published 2004).
